The target in one experiment is PIK3CD (Human) (UniProt O00329). The experiment is described as follows: Inhibition of PIK3CD Kinase Activity.
The next experiment has as its target PIK3CG (human) (UniProt P48736). The experiment is described as follows: Inhibition of PIK3CG Kinase Activity.
The target of the next experiment is PIK3CA (human) (UniProt P42336). Description: Inhibition of PIK3CA Kinase Activity.
The next experiment has as its target PIK3CB (Human) (UniProt P42338). The experiment is described as follows: Inhibition of PIK3CB Kinase Activity.

Structures are written as SMILES.

Chain of PIK3CA (human) (P42336 whole entry, looked up): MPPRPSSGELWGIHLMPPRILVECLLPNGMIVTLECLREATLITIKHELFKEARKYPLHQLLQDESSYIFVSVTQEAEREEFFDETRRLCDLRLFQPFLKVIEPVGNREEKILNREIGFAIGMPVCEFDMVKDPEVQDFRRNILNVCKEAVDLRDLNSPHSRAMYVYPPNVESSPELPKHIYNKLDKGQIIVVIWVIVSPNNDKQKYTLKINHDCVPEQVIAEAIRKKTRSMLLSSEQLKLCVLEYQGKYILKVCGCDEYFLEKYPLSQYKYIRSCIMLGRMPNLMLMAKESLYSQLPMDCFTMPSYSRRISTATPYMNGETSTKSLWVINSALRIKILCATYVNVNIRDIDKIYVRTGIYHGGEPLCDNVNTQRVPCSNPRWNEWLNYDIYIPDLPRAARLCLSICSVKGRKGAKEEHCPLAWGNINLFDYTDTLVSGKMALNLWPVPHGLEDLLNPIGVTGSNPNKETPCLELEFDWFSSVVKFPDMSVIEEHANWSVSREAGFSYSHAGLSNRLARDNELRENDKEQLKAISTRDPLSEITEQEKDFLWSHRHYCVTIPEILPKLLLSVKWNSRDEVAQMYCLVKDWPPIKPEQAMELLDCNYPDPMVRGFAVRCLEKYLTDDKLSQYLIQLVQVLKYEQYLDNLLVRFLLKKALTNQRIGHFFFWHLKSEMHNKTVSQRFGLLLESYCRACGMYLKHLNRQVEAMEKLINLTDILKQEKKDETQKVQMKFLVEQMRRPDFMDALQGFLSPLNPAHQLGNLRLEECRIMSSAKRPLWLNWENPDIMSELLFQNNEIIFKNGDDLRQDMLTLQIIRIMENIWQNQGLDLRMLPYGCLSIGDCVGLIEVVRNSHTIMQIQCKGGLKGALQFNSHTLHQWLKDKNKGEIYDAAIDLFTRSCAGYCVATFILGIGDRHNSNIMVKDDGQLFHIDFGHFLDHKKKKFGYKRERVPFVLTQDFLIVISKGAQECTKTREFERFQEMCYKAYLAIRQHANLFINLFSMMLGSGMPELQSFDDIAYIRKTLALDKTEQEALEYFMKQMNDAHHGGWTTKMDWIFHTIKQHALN
Chain of PIK3CG (human) (P48736 whole entry, looked up): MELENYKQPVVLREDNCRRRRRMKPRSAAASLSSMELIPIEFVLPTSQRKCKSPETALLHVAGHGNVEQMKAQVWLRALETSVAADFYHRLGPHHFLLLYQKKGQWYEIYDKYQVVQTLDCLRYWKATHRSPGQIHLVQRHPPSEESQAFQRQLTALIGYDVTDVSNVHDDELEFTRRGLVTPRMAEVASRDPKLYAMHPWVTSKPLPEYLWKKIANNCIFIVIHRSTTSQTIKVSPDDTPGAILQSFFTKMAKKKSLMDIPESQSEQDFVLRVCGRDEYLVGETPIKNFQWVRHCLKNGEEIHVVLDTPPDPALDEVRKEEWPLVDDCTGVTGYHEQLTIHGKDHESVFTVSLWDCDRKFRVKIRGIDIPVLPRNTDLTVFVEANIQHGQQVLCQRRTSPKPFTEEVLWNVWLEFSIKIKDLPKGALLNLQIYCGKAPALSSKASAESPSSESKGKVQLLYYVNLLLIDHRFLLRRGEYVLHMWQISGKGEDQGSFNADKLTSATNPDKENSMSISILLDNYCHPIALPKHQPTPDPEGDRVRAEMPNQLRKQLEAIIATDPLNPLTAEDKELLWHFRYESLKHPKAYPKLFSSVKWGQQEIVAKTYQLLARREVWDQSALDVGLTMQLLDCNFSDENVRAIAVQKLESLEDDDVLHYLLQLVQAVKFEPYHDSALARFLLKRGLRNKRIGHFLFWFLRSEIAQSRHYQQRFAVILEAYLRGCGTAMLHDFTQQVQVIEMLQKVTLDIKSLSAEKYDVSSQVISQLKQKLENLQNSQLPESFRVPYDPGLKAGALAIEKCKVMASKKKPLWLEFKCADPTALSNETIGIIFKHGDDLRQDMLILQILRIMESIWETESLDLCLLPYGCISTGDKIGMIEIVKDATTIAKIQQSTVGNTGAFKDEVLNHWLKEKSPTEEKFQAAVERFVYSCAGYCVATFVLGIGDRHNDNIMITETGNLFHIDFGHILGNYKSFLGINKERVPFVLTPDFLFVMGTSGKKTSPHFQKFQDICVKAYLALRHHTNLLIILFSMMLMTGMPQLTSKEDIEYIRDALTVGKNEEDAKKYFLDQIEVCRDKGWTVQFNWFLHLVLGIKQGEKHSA
Chain of PIK3CD (Human) (O00329 whole entry, looked up): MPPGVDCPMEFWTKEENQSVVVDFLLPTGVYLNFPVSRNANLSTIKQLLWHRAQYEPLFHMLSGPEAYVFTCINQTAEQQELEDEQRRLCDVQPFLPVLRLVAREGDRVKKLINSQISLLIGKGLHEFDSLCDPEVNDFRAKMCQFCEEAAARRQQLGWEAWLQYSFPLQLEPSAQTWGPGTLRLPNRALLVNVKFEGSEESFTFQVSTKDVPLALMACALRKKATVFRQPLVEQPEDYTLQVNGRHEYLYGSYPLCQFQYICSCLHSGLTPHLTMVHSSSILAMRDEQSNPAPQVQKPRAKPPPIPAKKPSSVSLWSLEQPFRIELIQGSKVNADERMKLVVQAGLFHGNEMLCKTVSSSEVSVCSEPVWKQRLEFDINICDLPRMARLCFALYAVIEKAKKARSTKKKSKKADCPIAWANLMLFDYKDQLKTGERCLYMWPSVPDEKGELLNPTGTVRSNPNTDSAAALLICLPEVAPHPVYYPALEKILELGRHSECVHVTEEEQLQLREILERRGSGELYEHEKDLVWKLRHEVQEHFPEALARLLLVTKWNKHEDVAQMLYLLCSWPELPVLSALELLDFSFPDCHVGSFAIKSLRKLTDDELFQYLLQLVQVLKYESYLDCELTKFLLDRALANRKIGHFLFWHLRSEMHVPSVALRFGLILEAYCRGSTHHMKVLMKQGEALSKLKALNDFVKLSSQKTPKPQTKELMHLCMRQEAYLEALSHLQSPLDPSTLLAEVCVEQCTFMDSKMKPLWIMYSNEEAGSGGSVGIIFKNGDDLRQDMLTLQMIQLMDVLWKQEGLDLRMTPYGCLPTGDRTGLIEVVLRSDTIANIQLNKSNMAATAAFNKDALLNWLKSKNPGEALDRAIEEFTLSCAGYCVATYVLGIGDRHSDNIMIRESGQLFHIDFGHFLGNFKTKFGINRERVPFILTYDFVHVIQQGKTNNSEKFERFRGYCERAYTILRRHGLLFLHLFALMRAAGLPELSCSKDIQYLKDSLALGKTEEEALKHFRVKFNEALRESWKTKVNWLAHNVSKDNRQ
Chain of PIK3CB (Human) (P42338 whole entry, looked up): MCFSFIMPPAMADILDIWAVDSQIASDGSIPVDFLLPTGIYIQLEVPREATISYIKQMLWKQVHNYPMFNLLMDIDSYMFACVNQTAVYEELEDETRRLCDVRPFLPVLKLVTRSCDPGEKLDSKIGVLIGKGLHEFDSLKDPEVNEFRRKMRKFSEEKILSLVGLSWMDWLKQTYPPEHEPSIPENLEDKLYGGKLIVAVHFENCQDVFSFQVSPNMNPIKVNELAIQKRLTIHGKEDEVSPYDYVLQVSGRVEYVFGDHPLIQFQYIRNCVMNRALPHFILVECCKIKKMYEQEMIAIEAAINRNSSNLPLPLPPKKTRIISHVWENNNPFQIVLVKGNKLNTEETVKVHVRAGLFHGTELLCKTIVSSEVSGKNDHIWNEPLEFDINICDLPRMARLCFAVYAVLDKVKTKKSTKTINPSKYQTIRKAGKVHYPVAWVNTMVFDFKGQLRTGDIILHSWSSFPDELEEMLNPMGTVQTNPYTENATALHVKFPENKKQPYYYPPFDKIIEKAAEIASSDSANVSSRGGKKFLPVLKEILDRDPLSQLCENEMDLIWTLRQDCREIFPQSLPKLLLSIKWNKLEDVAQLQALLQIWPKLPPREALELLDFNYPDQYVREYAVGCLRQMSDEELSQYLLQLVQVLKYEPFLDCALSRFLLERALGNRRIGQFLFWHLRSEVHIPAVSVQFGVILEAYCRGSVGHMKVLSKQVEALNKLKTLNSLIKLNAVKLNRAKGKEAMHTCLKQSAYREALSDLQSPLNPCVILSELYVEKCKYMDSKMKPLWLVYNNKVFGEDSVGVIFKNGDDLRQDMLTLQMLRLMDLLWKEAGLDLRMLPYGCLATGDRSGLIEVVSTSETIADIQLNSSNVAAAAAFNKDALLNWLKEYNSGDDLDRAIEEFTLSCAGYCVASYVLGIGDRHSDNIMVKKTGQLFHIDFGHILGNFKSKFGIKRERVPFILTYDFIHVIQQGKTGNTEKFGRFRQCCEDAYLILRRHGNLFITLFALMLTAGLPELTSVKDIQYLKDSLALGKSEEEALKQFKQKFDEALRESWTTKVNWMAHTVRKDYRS

For orientation: IC50 means the point on the concentration scale where inhibition reaches its midpoint. Read a low IC50 as inhibition by little substance. In the case of `C[C@H](Nc1ncnc2[nH]cnc12)c1cc2cccc(-c3cccnc3)c2c(=O)[nH]1`, the IC50 at PIK3CD (Human) was under 100 nM; against PIK3CG (human), 100 to 1000 nM; on PIK3CA (human), over 10000 nM; against PIK3CB (Human) it was over 10000 nM.
In the case of `C[C@H](Nc1nc(N)nc2[nH]cnc12)c1cc2cccc(-c3cccnc3)c2c(=O)n1-c1ccccc1`, the half-inhibitory concentration (IC50) was under 100 nM against PIK3CD (Human), under 100 nM against PIK3CG (human) and 100 to 1000 nM against PIK3CA (human).
Regarding `CCc1cccc2cc([C@H](C)Nc3ncnc4[nH]cnc34)n(-c3ccccc3)c(=O)c12`, the IC50 at PIK3CD (Human) and against PIK3CG (human) was under 100 nM each time.
On to `C[C@H](Nc1ncnc2[nH]cnc12)c1cc2cccc(-c3cccnc3)c2c(=O)n1-c1ccccc1`, for which the IC50 on PIK3CD (Human) and on PIK3CG (human) was under 100 nM throughout.
As to `C[C@H](Nc1ncnc2[nH]cnc12)c1cc2cccc(N(C)C)c2c(=O)n1-c1ccccc1`, the IC50 against PIK3CA (human) and on PIK3CB (Human) was over 10000 nM throughout.
`C[C@H](Nc1nc(N)ncc1I)c1cc2cccc(-c3cnn(C)c3)c2c(=O)n1-c1ccccc1`: the IC50 against PIK3CD (Human) was under 100 nM; on PIK3CG (human), under 100 nM; at PIK3CA (human), over 10000 nM; against PIK3CB (Human) it was over 10000 nM.
For the compound `C[C@H](Nc1ncnc2[nH]cnc12)c1cc2cccc(-c3cn[nH]c3)c2c(=O)n1C1CC1`, the IC50 was under 100 nM against PIK3CD (Human), under 100 nM against PIK3CG (human), 100 to 1000 nM against PIK3CA (human) and 100 to 1000 nM against PIK3CB (Human).
As for `C[C@H](Nc1ncnc2[nH]cnc12)c1cc2cccc(-c3cnn(C)c3)c2c(=O)n1-c1ccccc1`, the IC50 at PIK3CD (Human) was under 100 nM; at PIK3CG (human), under 100 nM; on PIK3CA (human), over 10000 nM; against PIK3CB (Human) it was over 10000 nM.
In the case of `C[C@H](Nc1ncnc2[nH]cnc12)c1cc2cccc(-c3cnn(C)c3)c2c(=O)n1-c1cccc(F)c1`, the IC50 was under 100 nM against PIK3CD (Human), under 100 nM at PIK3CG (human) and over 10000 nM on PIK3CB (Human).
With `C[C@H](Nc1ncnc2[nH]cnc12)c1cc2cccc(C#N)c2c(=O)n1-c1ccccc1`, the IC50 against PIK3CD (Human) is under 100 nM; against PIK3CG (human) it was under 100 nM; against PIK3CA (human), over 10000 nM.
As to `C[C@H](Nc1ncnc2[nH]cc(C(N)=O)c12)c1cc2cccc(-c3cnn(C)c3)c2c(=O)n1-c1ccccc1`, the IC50 against PIK3CD (Human) and against PIK3CG (human) was under 100 nM in each case.
With `C[C@H](Nc1nc(N)ncc1C#N)c1cc2cccc(-c3cnn(C)c3)c2c(=O)n1-c1ccccc1`, the IC50 was under 100 nM on PIK3CD (Human), under 100 nM on PIK3CG (human), over 10000 nM against PIK3CA (human) and over 10000 nM at PIK3CB (Human).
For the compound `Cc1ccc(-c2cccc3cc([C@H](C)Nc4ncnc(N)n4)n(-c4ccccc4)c(=O)c23)cn1`, the IC50 against PIK3CD (Human) was 100 to 1000 nM; against PIK3CA (human) it was over 10000 nM; on PIK3CB (Human), over 10000 nM.
As for `C[C@H](Nc1ncnc2[nH]cnc12)c1cc2cccc(N3CCOCC3)c2c(=O)n1-c1ccccc1`, the concentration for half-maximal inhibition (IC50) is 100 to 1000 nM on PIK3CD (Human), 100 to 1000 nM against PIK3CG (human), over 10000 nM on PIK3CA (human) and over 10000 nM on PIK3CB (Human).
For `C[C@H](Nc1nc(N)ncc1C#N)c1cc2cccc(-c3cnn(C)c3)c2c(=O)n1C1CC1`, the IC50 against PIK3CD (Human), against PIK3CG (human) and against PIK3CB (Human) was under 100 nM in each case.
`C[C@H](Nc1ncnc(N)c1C#N)c1cc2cccc(-c3cnn(C)c3)c2c(=O)n1-c1ccccc1`: the IC50 is under 100 nM on PIK3CD (Human), under 100 nM at PIK3CG (human) and over 10000 nM against PIK3CB (Human).
For the compound `Cc1ccc(-c2cccc3cc([C@H](C)Nc4nc(N)nc5[nH]cnc45)n(-c4ccccc4)c(=O)c23)cn1`, the IC50 was under 100 nM against PIK3CD (Human), under 100 nM against PIK3CG (human) and 100 to 1000 nM against PIK3CA (human).
With `C[C@H](Nc1nc(N)ncc1Cl)c1cc2cccc(-c3cnn(C)c3)c2c(=O)n1-c1ccccc1`, the IC50 is under 100 nM against PIK3CD (Human), 100 to 1000 nM at PIK3CG (human), over 10000 nM against PIK3CA (human) and over 10000 nM against PIK3CB (Human).
Turning to `Cc1cnn(-c2cccc3cc([C@H](C)Nc4ncnc5[nH]cnc45)n(-c4ccccc4)c(=O)c23)c1`, the figures for the IC50 against PIK3CD (Human), against PIK3CA (human) and against PIK3CB (Human) were 100 to 1000 nM, over 10000 nM and over 10000 nM, respectively.
As to `Cc1cn(-c2cccc3cc([C@H](C)Nc4ncnc5[nH]cnc45)n(-c4ccccc4)c(=O)c23)cn1`, the IC50 on PIK3CD (Human) was under 100 nM; against PIK3CA (human) it was over 10000 nM; against PIK3CB (Human), over 10000 nM.
As for `C[C@H](Nc1ncnc2[nH]cnc12)c1cc2cccc(-c3cnn(C)c3)c2c(=O)n1C1CC1`, the IC50 is under 100 nM against PIK3CD (Human) and 100 to 1000 nM on PIK3CG (human).
Consider `COc1ncc(-c2cccc3cc([C@H](C)Nc4ncnc5[nH]cnc45)n(-c4ccccc4)c(=O)c23)cn1`, for which the IC50 on PIK3CD (Human) is under 100 nM; on PIK3CB (Human) it was over 10000 nM.
As for `C[C@H](Nc1ncnc2[nH]cnc12)c1cc2cccc(N3CCN(C)CC3)c2c(=O)n1-c1ccccc1`, the IC50 is 100 to 1000 nM on PIK3CD (Human), over 10000 nM against PIK3CG (human), over 10000 nM against PIK3CA (human) and over 10000 nM against PIK3CB (Human).
For `C[C@H](Nc1ncnc2[nH]cc(F)c12)c1cc2cccc(-c3cnn(C)c3)c2c(=O)n1C1CC1`, the results for the IC50 against PIK3CD (Human) and at PIK3CG (human) were under 100 nM and 100 to 1000 nM, respectively.
With `C[C@H](Nc1ncnn2cncc12)c1cc2cccc(-c3cnn(C)c3)c2c(=O)n1-c1ccccc1`, the IC50 against PIK3CG (human), against PIK3CA (human) and on PIK3CB (Human) was over 10000 nM in each case.
With `C[C@H](Nc1ncnn2ccnc12)c1cc2cccc(-c3cnn(C)c3)c2c(=O)n1-c1ccccc1`, the IC50 at PIK3CD (Human) was under 100 nM; against PIK3CG (human), 100 to 1000 nM; at PIK3CB (Human) it was over 10000 nM.
For `Cc1ccc(-c2cccc3cc([C@H](C)Nc4ncnc5[nH]cnc45)n(-c4ccccc4)c(=O)c23)cn1`, in that order: under 100 nM, under 100 nM and over 10000 nM.
Consider `C[C@H](Nc1ncnc2[nH]cnc12)c1cc2cccc(N3CCCC3)c2c(=O)n1-c1ccccc1`, for which the IC50 against PIK3CA (human) and on PIK3CB (Human) was over 10000 nM throughout.
As for `C[C@H](Nc1ncnc2[nH]cnc12)c1cc2cccc(-c3ccncc3)c2c(=O)n1-c1ccccc1`, the IC50 against PIK3CD (Human) and on PIK3CG (human) was under 100 nM in each case.
Turning to `C[C@H](Nc1nc(N)ncc1C(F)(F)F)c1cc2cccc(-c3cnn(C)c3)c2c(=O)n1-c1ccccc1`, the IC50 against PIK3CD (Human) is under 100 nM; against PIK3CG (human), under 100 nM; on PIK3CA (human), over 10000 nM; at PIK3CB (Human), over 10000 nM.
In the case of `C=Cc1cccc2cc([C@H](C)Nc3ncnc4[nH]cnc34)n(-c3ccccc3)c(=O)c12`, the IC50 on PIK3CD (Human) and against PIK3CG (human) was under 100 nM each time.
Take `C[C@H](Nc1ncnc2[nH]cnc12)c1cc2cccc(-c3cn[nH]c3)c2c(=O)n1-c1ccccc1`: the IC50 at PIK3CD (Human) was under 100 nM; against PIK3CG (human), 100 to 1000 nM; on PIK3CB (Human), over 10000 nM.
Consider `C[C@H](Nc1ncnc2[nH]cnc12)c1cc2cccc(-c3cccc(F)c3)c2c(=O)n1-c1ccccc1`, for which the IC50 against PIK3CD (Human) and at PIK3CG (human) was under 100 nM throughout.
Turning to `C[C@H](Nc1ncnc2[nH]cnc12)c1cc2cccc(-c3cc[nH]n3)c2c(=O)n1-c1ccccc1`, the IC50 was under 100 nM at PIK3CD (Human), under 100 nM on PIK3CG (human), over 10000 nM against PIK3CA (human) and over 10000 nM against PIK3CB (Human).
Regarding `C[C@H](Nc1nc(N)nc2[nH]cnc12)c1cc2cccc(-c3cnn(C)c3)c2c(=O)n1-c1ccccc1`, the IC50 against PIK3CD (Human) is under 100 nM; against PIK3CG (human) it was under 100 nM; against PIK3CA (human), 100 to 1000 nM.
Regarding `C[C@H](Nc1ncnc2[nH]cnc12)c1cc2cccc(-n3cccn3)c2c(=O)n1-c1ccccc1`, the figures for the IC50 on PIK3CD (Human), against PIK3CA (human) and against PIK3CB (Human) were 100 to 1000 nM, over 10000 nM and over 10000 nM, respectively.
Turning to `C[C@H](Nc1ncnc2[nH]cc(C#N)c12)c1cc2cccc(-c3cnn(C)c3)c2c(=O)n1-c1ccccc1`, the IC50 on PIK3CD (Human) was under 100 nM; against PIK3CG (human) it was under 100 nM; on PIK3CA (human), 100 to 1000 nM.
On to `C[C@H](Nc1ncnc2[nH]cnc12)c1cc2cccc(-c3cnn(C)c3)c2c(=O)[nH]1`, for which the IC50 on PIK3CG (human), against PIK3CA (human) and against PIK3CB (Human) was over 10000 nM in each case.
As for `C[C@H](Nc1ncnc(N)n1)c1cc2cccc(-c3cnn(C)c3)c2c(=O)n1-c1ccccc1`, the values for the IC50 against PIK3CD (Human), against PIK3CA (human) and against PIK3CB (Human) were under 100 nM, over 10000 nM and over 10000 nM, respectively.
Regarding `C[C@H](Nc1ncnc2[nH]cnc12)c1cc2cccc(-c3cccnc3)c2c(=O)n1C1CC1`, the values for the IC50 at PIK3CD (Human), against PIK3CG (human) and against PIK3CB (Human) were under 100 nM, under 100 nM and 100 to 1000 nM, respectively.
For `C[C@H](Nc1ncnc2[nH]cnc12)c1cc2cccc(NC3CCOCC3)c2c(=O)n1-c1ccccc1`, the IC50 was 100 to 1000 nM against PIK3CD (Human), over 10000 nM against PIK3CA (human) and over 10000 nM against PIK3CB (Human).
Regarding `C[C@H](Nc1nc(N)ncc1C(F)(F)F)c1cc2cccc(-c3cnn(C)c3)c2c(=O)n1C1CC1`, the IC50 is under 100 nM at PIK3CD (Human), under 100 nM at PIK3CG (human), over 10000 nM against PIK3CA (human) and over 10000 nM at PIK3CB (Human).
Turning to `Cc1cc(-c2cccc3cc([C@H](C)Nc4ncnc5[nH]cnc45)n(-c4ccccc4)c(=O)c23)ccn1`, the IC50 against PIK3CD (Human) was under 100 nM; against PIK3CG (human) it was under 100 nM; against PIK3CA (human), 100 to 1000 nM.
